The assay has as its system JAX WT DIO. In words: Rimonabant 3 mg/kg QD in JAX WT DIO mice (12 weeks HFD): body weight, fat mass, liver weight. The format is in vivo, mouse. Conditions: JAX WT DIO (12 weeks HFD), 3 mg/kg (6.5 μmol/kg, QD).

Results on one compound are retold here after patent US20250277029A1, “CANNABINOID TYPE 1 RECEPTOR BINDING PROTEINS AND USES THEREOF” (AMGEN INC., priority 2022, published 2025).

For `Cc1c(C(=O)NN2CCCCC2)nn(-c2ccc(Cl)cc2Cl)c1-c1ccc(Cl)cc1` [Rimonabant, rimonabant], the “Fat Mass % Change” value (Day 15) was −23%. In addition, for the setting “Day 17”, the “Liver Weight % Change (Day)” value is given as −7%. Moreover, where the note is “day 17”, the “BW % Change” value is listed as −12.9%.
